Values quoted from earlier work, collected in US9469654B2, “Bicyclic oxa-lactam kinase inhibitors” (PORTOLA PHARMACEUTICALS, INC., priority 2012, dated 2016).

How the values were obtained:
[1] = system: JAK kinases
[2] = system: Src kinsase
[3] = system: lymphoma cell lines and primary human lymphoma samples
[4] = system: refractory NHL and chronic lymphocytic leukemia; details: phase II clinical trial

activity against Src kinase [2]: not against
SMILES: COc1cc(Nc2ncc(F)c(Nc3ccc4c(n3)NC(=O)C(C)(C)O4)n2)cc(OC)c1OC [Example R406]
activity against JAK kinases [1]: active against
apoptosis ([3]; lymphoma cell lines): resulting in apoptosis
effect on BCR signaling ([3]; lymphoma cell lines and primary human lymphoma samples): attenuates BCR signaling
clinical outcome [4]: favorable results
